PubChem BioAssay AID1845213 (Molecular Pharmacology Branch, DTP, NCI, 2023)
Activity calls are given as the source filed them. Rule for the calls: active = viability on the fitted dose curve at most 10% of control; inactive = the rest.

Test system: NCI-H841 complex tumor spheroid viability
Test: Anticancer human tumor NCI-H841 cell line growth inhibition;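 for IC50: spheroids exposed to compounds for 7 days before readout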;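 for viability, T/C: spheroids exposed to compounds for 7 days before readout; 100% = DMSO vehicle control wells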
Conditions: for IC50: curve of first compound; for viability, T/C: stronger effect = lower value
Summary of the method: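 Complex tumor spheroids combined malignant cells with endothelial cells and mesenchymal stem cells. DNA-damaging drugs and DNA repair inhibitors were tested alone and in combination, at half-log dilutions down from clinical Cmax (top 10 microM if Cmax unknown), 0.25% DMSO final.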

[1] = second compound 1 µM, first compound 0.0316 µM
[2] = second compound 1 µM, first compound 0.1 µM
[3] = second compound 1 µM, first compound 0.316 µM
[4] = second compound 1 µM, first compound 1 µM
[5] = second compound 1 µM, first compound 3.16 µM
[6] = second compound 1 µM, first compound 10 µM
[7] = second compound 3.16 µM, first compound 0.0316 µM
[8] = second compound 3.16 µM, first compound 0.1 µM
[9] = second compound 3.16 µM, first compound 0.316 µM
[10] = second compound 3.16 µM, first compound 1 µM
[11] = second compound 3.16 µM, first compound 3.16 µM
[12] = second compound 3.16 µM, first compound 10 µM
[13] = second compound 10 µM, first compound 0.0316 µM
[14] = second compound 10 µM, first compound 0.1 µM
[15] = second compound 10 µM, first compound 0.316 µM
[16] = second compound 10 µM, first compound 1 µM
[17] = second compound 10 µM, first compound 3.16 µM
[18] = second compound 10 µM, first compound 10 µM
[19] = second compound 31.6 µM, first compound 0.0316 µM
[20] = second compound 31.6 µM, first compound 0.1 µM
[21] = second compound 31.6 µM, first compound 0.316 µM
[22] = second compound 31.6 µM, first compound 1 µM
[23] = second compound 31.6 µM, first compound 3.16 µM
[24] = second compound 31.6 µM, first compound 10 µM
[25] = second compound 100 µM, first compound 0.0316 µM
[26] = second compound 100 µM, first compound 0.1 µM
[27] = second compound 100 µM, first compound 0.316 µM
[28] = second compound 100 µM, first compound 1 µM
[29] = second compound 100 µM, first compound 3.16 µM
[30] = second compound 100 µM, first compound 10 µM

COc1cc(C)[nH]c(=O)c1CN1CCc2c(Cl)cc(C(OC)C3COC3)c(Cl)c2C1=O (stereo not given) + Cn1nnc2c(C(N)=O)ncn2c1=O was tested, and the IC50 (second compound 1 µM) was 398 nM, the IC50 (second compound 3.16 µM) was 547 nM and the IC50 (second compound 10 µM) was 367 nM. It also gave an IC50 (second compound 31.6 µM) of 428 nM, an IC50 (second compound 100 µM) of 394 nM and a viability, T/C [1] of 79.7%. For the same compound, the viability, T/C [2] was 67.1%, the viability, T/C [3] was 48.4% and the viability, T/C [4] was 45.4%. It also gave a viability, T/C [5] of 33.9%, a viability, T/C [6] of 31.3% and a viability, T/C [7] of 85%. For the same compound, the viability, T/C [8] was 63.5%, the viability, T/C [9] was 54.5% and the viability, T/C [10] was 47.8%. The viability, T/C [11] was 38.5%, the viability, T/C [12] was 32.8% and the viability, T/C [13] was 86%. It also gave a viability, T/C [14] of 67%, a viability, T/C [15] of 50.6% and a viability, T/C [16] of 41.1%. It also gave a viability, T/C [17] of 35.9%, a viability, T/C [18] of 30.9% and a viability, T/C [19] of 83.9%. The viability, T/C [20] was 70.3%, the viability, T/C [21] was 49.8% and the viability, T/C [22] was 41.8%. It also gave a viability, T/C [23] of 36.9%, a viability, T/C [24] of 27% and a viability, T/C [25] of 87.3%. For the same compound, the viability, T/C [26] was 77.6%, the viability, T/C [27] was 51.2% and the viability, T/C [28] was 39.9%. It also gave a viability, T/C [29] of 36.5% and a viability, T/C [30] of 30.8%.
Cc1cc(C)c(CNC(=O)c2cc(-c3ccc(CN4CCOCC4)cc3)cc3c2cnn3C2CCCC2)c(=O)[nH]1 + Cn1nnc2c(C(N)=O)ncn2c1=O gave an IC50 (second compound 1 µM) of 7500 nM, an IC50 (second compound 3.16 µM) of over 10000 nM and an IC50 (second compound 10 µM) of over 10000 nM. For the same compound, the IC50 (second compound 31.6 µM) was 9720 nM, the IC50 (second compound 100 µM) was 7700 nM and the viability, T/C [1] was 101%. The viability, T/C [2] was 102%, the viability, T/C [3] was 97.2% and the viability, T/C [4] was 94.6%. For the same compound, the viability, T/C [5] was 78.9%, the viability, T/C [6] was 40.1% and the viability, T/C [7] was 101%. For the same compound, the viability, T/C [8] was 105%, the viability, T/C [9] was 102% and the viability, T/C [10] was 97.4%. The viability, T/C [11] was 85.2%, the viability, T/C [12] was 56.3% and the viability, T/C [13] was 103%. The viability, T/C [14] was 108%, the viability, T/C [15] was 105% and the viability, T/C [16] was 94.9%. The viability, T/C [17] was 87.2%, the viability, T/C [18] was 52.5% and the outcome [19] was “inactive”. It also gave a viability, T/C [20] of 101%, a viability, T/C [21] of 97.6% and a viability, T/C [22] of 103%. For the same compound, the viability, T/C [23] was 83%, the viability, T/C [24] was 49.2% and the viability, T/C [25] was 98.3%. It also gave a viability, T/C [26] of 99.2%, a viability, T/C [27] of 95.8% and a viability, T/C [28] of 97.6%. It also gave a viability, T/C [29] of 77.6% and a viability, T/C [30] of 41.7%.
Compound Cc1sc2c(c1C)C(c1ccc(Cl)cc1)=NC(CC(=O)Nc1ccc(O)cc1)c1nnc(C)n1-2 (stereo not given) + Cn1nnc2c(C(N)=O)ncn2c1=O has an IC50 (second compound 1 µM) of 375 nM, an IC50 (second compound 3.16 µM) of 409 nM and an IC50 (second compound 10 µM) of 384 nM. For the same compound, the IC50 (second compound 31.6 µM) was 361 nM, the IC50 (second compound 100 µM) was 267 nM and the viability, T/C (second compound 1 µM, first compound 0.00949 µM) was 98.5%. The viability, T/C (second compound 1 µM, first compound 0.03 µM) was 101%, the viability, T/C (second compound 1 µM, first compound 0.0949 µM) was 74.8% and the viability, T/C (second compound 1 µM, first compound 0.3 µM) was 59.8%. The viability, T/C (second compound 1 µM, first compound 0.949 µM) was 24.3%, the viability, T/C (second compound 1 µM, first compound 3 µM) was 6.54% and the viability, T/C (second compound 3.16 µM, first compound 0.00949 µM) was 105%. For the same compound, the viability, T/C (second compound 3.16 µM, first compound 0.03 µM) was 98%, the viability, T/C (second compound 3.16 µM, first compound 0.0949 µM) was 88.9% and the viability, T/C (second compound 3.16 µM, first compound 0.3 µM) was 59.1%. For the same compound, the viability, T/C (second compound 3.16 µM, first compound 0.949 µM) was 24.7%, the viability, T/C (second compound 3.16 µM, first compound 3 µM) was 5.5% and the viability, T/C (second compound 10 µM, first compound 0.00949 µM) was 102%. For the same compound, the outcome (second compound 10 µM, first compound 0.03 µM) was “inactive”, the viability, T/C (second compound 10 µM, first compound 0.0949 µM) was 87.8% and the viability, T/C (second compound 10 µM, first compound 0.3 µM) was 61.5%. For the same compound, the viability, T/C (second compound 10 µM, first compound 0.949 µM) was 14.4%, the viability, T/C (second compound 10 µM, first compound 3 µM) was 4.47% and the viability, T/C (second compound 31.6 µM, first compound 0.00949 µM) was 102%. For the same compound, the viability, T/C (second compound 31.6 µM, first compound 0.03 µM) was 98.2%, the outcome (second compound 31.6 µM, first compound 0.0949 µM) was “inactive” and the viability, T/C (second compound 31.6 µM, first compound 0.3 µM) was 57.3%. It also gave a viability, T/C (second compound 31.6 µM, first compound 0.949 µM) of 12.6%, a viability, T/C (second compound 31.6 µM, first compound 3 µM) of 2.27% and a viability, T/C (second compound 100 µM, first compound 0.00949 µM) of 101%. For the same compound, the viability, T/C (second compound 100 µM, first compound 0.03 µM) was 99.8%, the viability, T/C (second compound 100 µM, first compound 0.0949 µM) was 82.6% and the viability, T/C (second compound 100 µM, first compound 0.3 µM) was 49%. For the same compound, the viability, T/C (second compound 100 µM, first compound 0.949 µM) was 5.34% and the viability, T/C (second compound 100 µM, first compound 3 µM) was 1.69%.
[2H]c1nc(C)nc([2H])c1-c1cc(NC[C@@H](C)c2cccc3c(C(=O)NC)ccnc23)ncn1 + Cn1nnc2c(C(N)=O)ncn2c1=O showed an IC50 (second compound 1 µM) of over 10000 nM, an IC50 (second compound 3.16 µM) of over 10000 nM and an IC50 (second compound 10 µM) of over 10000 nM. The IC50 (second compound 31.6 µM) was over 10000 nM, the IC50 (second compound 100 µM) was over 10000 nM and the viability, T/C [1] was 98%. It also gave a viability, T/C [2] of 97.6%, a viability, T/C [3] of 94.8% and a viability, T/C [4] of 95%. The viability, T/C [5] was 93.2%, the viability, T/C [6] was 91.4% and the viability, T/C [7] was 98.8%. It also gave a viability, T/C [8] of 99.8%, a viability, T/C [9] of 101% and a viability, T/C [10] of 101%. The viability, T/C [11] was 95%, the viability, T/C [12] was 99.3% and the viability, T/C [13] was 99.6%. For the same compound, the viability, T/C [14] was 99.8%, the viability, T/C [15] was 97.7% and the viability, T/C [16] was 101%. The viability, T/C [17] was 98.9%, the viability, T/C [18] was 96.5% and the viability, T/C [19] was 97%. For the same compound, the viability, T/C [20] was 97.7%, the viability, T/C [21] was 100% and the viability, T/C [22] was 98%. The viability, T/C [23] was 97.4%, the outcome [24] was “inactive” and the viability, T/C [25] was 93.4%. It also gave a viability, T/C [26] of 95.7%, a viability, T/C [27] of 92.5% and a viability, T/C [28] of 95.9%. It also gave a viability, T/C [29] of 95.8% and a viability, T/C [30] of 91.2%.
